Data: ChEMBL document CHEMBL5050844 (2019)

Assays:
[1] = Induction of anti-CD3/CD28 antibodies-stimulated human T cell activation at 1 uM assessed fold increase in IL-2 secretion measured by ELISA assay; assay type: functional, T cell line
[2] = Induction of anti-CD3/CD28 antibodies-stimulated human T cell activation at 0.3 uM assessed fold increase in IL-2 secretion measured by ELISA assay; assay type: functional, T cell line
[3] = Induction of anti-CD3 antibodies-stimulated human T cell activation at 8 uM assessed fold increase in IL-2 secretion measured by ELISA assay; assay type: functional, T cell line; note: reference of the scale not given here
[4] = Induction of anti-CD3 antibodies-stimulated human T cell activation at 1 uM assessed fold increase in IL-2 secretion measured by ELISA assay; assay type: functional, T cell line; note: reference of the scale not given here
[5] = Induction of anti-CD3/CD28 antibodies-stimulated human T cell activation at 4 uM assessed fold increase in CD25 expression measured by ELISA assay; assay type: functional, T cell line
[6] = Induction of anti-CD3/CD28 antibodies-stimulated human T cell activation at 1 uM assessed fold increase in CD25 expression measured by ELISA assay; assay type: functional, T cell line
[7] = Induction of anti-CD3/CD28 antibodies-stimulated human T cell activation at 0.3 uM assessed fold increase in CD25 expression measured by ELISA assay; assay type: functional, T cell line
[8] = Induction of anti-CD3 antibodies-stimulated human T cell activation at 8 uM assessed fold increase in CD25 expression measured by ELISA assay; assay type: functional, T cell line; note: reference of the scale not given here
[9] = Induction of anti-CD3 antibodies-stimulated human T cell activation at 1 uM assessed fold increase in CD25 expression measured by ELISA assay; assay type: functional, T cell line; note: reference of the scale not given here
[10] = Induction of anti-CD3/CD28 antibodies-stimulated human CD4+ T cell activation at 10 uM assessed fold increase in CD69 expression measured by flow cytometry analysis; assay type: functional, T cell line
[11] = Induction of anti-CD3/CD28 antibodies-stimulated human CD4+ T cell activation at 1.11 uM assessed fold increase in CD69 expression measured by flow cytometry analysis; assay type: functional, T cell line
[12] = Induction of anti-CD3/CD28 antibodies-stimulated human CD8+ T cell activation at 1.11 uM assessed fold increase in CD69 expression measured by flow cytometry analysis; assay type: functional, T cell line
[13] = Induction of anti-CD3/CD28 antibodies-stimulated human CD8+ T cell activation at 10 uM assessed fold increase in cell proliferation measured by flow cytometry analysis; assay type: functional, T cell line
[14] = Induction of anti-CD3/CD28 antibodies-stimulated human CD8+ T cell activation at 1.11 uM assessed fold increase in cell proliferation measured by flow cytometry analysis; assay type: functional, T cell line
[15] = Induction of anti-CD3 antibodies-stimulated human CD4+ T cell activation at 10 uM assessed fold increase in CD69 expression measured by flow cytometry analysis; assay type: functional, T cell line; note: reference of the scale not given here
[16] = Induction of anti-CD3 antibodies-stimulated human CD4+ T cell activation at 1.11 uM assessed fold increase in CD69 expression measured by flow cytometry analysis; assay type: functional, T cell line; note: reference of the scale not given here
[17] = Induction of anti-CD3 antibodies-stimulated human CD8+ T cell activation at 10 uM assessed fold increase in CD69 expression measured by flow cytometry analysis; assay type: functional, T cell line; note: reference of the scale not given here
[18] = Induction of anti-CD3 antibodies-stimulated human CD8+ T cell activation at 1.11 uM assessed fold increase in cell proliferation measured by flow cytometry analysis; assay type: functional, T cell line; note: reference of the scale not given here
[19] = Induction of anti-CD3/CD28 antibodies-stimulated human T cell activation at 1.11 uM assessed fold increase in GM-CSF secretion measured by ELISA assay; assay type: functional, T cell line
[20] = Induction of anti-CD3 antibodies-stimulated human T cell activation at 10 uM assessed fold increase in GM-CSF secretion measured by ELISA assay; assay type: functional, T cell line; note: reference of the scale not given here
[21] = Induction of anti-CD3 antibodies-stimulated human T cell activation at 1.11 uM assessed fold increase in GM-CSF secretion measured by ELISA assay; assay type: functional, T cell line; note: reference of the scale not given here
[22] = Induction of anti-CD3/CD28 antibodies-stimulated human T cell activation at 10 uM assessed fold increase in TNF-alpha secretion measured by ELISA assay; assay type: functional, T cell line
[23] = Induction of anti-CD3 antibodies-stimulated human T cell activation at 10 uM assessed fold increase in TNF-alpha secretion measured by ELISA assay; assay type: functional, T cell line; note: reference of the scale not given here
[24] = Induction of anti-CD3/CD28 antibodies-stimulated human T cell activation at 1.11 uM assessed fold increase in IFN-gamma secretion measured by ELISA assay; assay type: functional, T cell line
[25] = Induction of anti-CD3 antibodies-stimulated human T cell activation at 10 uM assessed fold increase in IFN-gamma secretion measured by ELISA assay; assay type: functional, T cell line; note: reference of the scale not given here
[26] = Induction of allogenic human T cell activation at 10 uM assessed fold increase in cell proliferation; assay type: functional, T cell line
[27] = Induction of anti-CD3 antibodies-stimulated human exhausted T cell activation assessed fold increase in IL-2 secretion measured by ELISA assay; assay type: functional, T cell line; note: reference of the scale not given here
[28] = Induction of anti-CD3 antibodies-stimulated human exhausted T cell activation assessed fold increase in GM-CSF secretion measured by ELISA assay; assay type: functional, T cell line; note: reference of the scale not given here
[29] = Induction of anti-CD3 antibodies-stimulated human exhausted CD4+ T cell activation assessed fold increase in CTLA4 expression measured by flow cytometry analysis; assay type: functional, T cell line; note: reference of the scale not given here
[30] = Induction of anti-CD3 antibodies-stimulated human exhausted CD8+ T cell activation assessed fold increase in CTLA4 expression measured by flow cytometry analysis; assay type: functional, T cell line; note: reference of the scale not given here
[31] = Induction of anti-CD3/CD28 antibodies-stimulated human anergic T cell activation at 10 uM assessed fold increase in IFN-gamma secretion measured by ELISA assay; assay type: functional, T cell line
[32] = Induction of anti-CD3/CD28 antibodies-stimulated human anergic T cell activation at 0.37 uM assessed fold increase in IFN-gamma secretion measured by ELISA assay; assay type: functional, T cell line
B cell = test: Induction of anti-IgM-stimulated human CD20+ B cell activation at 10 to 1000 uM assessed as increase in CD69 expression measured as mean fluorescence intensity AUC by flow cytometry analysis; assay type: functional, cell-based; settings: dose 10-1000 µM
[33] = Induction of activation of human CD56+ CD3- NK cells co-cultured with human K562 cells in 1:1 ratio and assessed as increase in IFN-gamma secretion at 10 uM measured by ELISA assay; assay type: functional, Natural killer cell
[34] = Induction of activation of human CD56+ CD3- NK cells co-cultured with human K562 cells in 1:1 ratio and assessed as increase in TNF-alpha secretion at 10 uM measured by ELISA assay; assay type: functional, Natural killer cell
[35] = Induction of activation of human CD56+ CD3- NK cells co-cultured with human K562 cells in 1:1 ratio and assessed as increase in IFN-gamma secretion at 2.5 uM measured by ELISA assay; assay type: functional, Natural killer cell
[36] = Induction of activation of human CD56+ CD3- NK cells co-cultured with human K562 cells in 1:1 ratio and assessed as increase in IFN-gamma secretion at 0.625 uM measured by ELISA assay; assay type: functional, Natural killer cell
[37] = Induction of activation of human CD56+ CD3- NK cells co-cultured with human K562 cells in 1:1 ratio and assessed as increase in TNF-alpha secretion at 0.625 uM measured by ELISA assay; assay type: functional, Natural killer cell

Structure (SMILES) | fold change (FC) [1] | fold change (FC) [2] | fold change (FC) [3] | fold change (FC) [4] | fold change (FC) [5] | fold change (FC) [6] | fold change (FC) [7] | fold change (FC) [8] | fold change (FC) [9] | fold change (FC) [10] | fold change (FC) [11] | fold change (FC) [12] | fold change (FC) [13] | fold change (FC) [14] | fold change (FC) [15] | fold change (FC) [16] | fold change (FC) [17] | fold change (FC) [18] | fold change (FC) [19] | fold change (FC) [20] | other results
Cc1cc2c(c(C3CC3)n1)CN(c1cccc([C@H](C)Cc3nncn3C)c1)C2=O | 1.01 | 1.01 | 0.101 | 0.051 | 1.01 | 1.01 | 1.01 | 0.801 | 0.601 | 1.201 | <=1.2 | <=1.2 | 2.01 | <=2 | 1.201 | <=1.2 | 1.201 | <=2 | <=1.5 | 1.51 | fold change (FC) [21]: <=1.5; fold change (FC) [22]: 2.01; fold change (FC) [23]: <=1.5; fold change (FC) [24]: <=2; fold change (FC) [25]: <=2; fold change (FC) [26]: <=2; fold change (FC) [27]: <=2.5; fold change (FC) [28]: <=1.4; fold change (FC) [29]: <=1.4; fold change (FC) [30]: <=1.4; fold change (FC) [31]: 2.51; fold change (FC) [32]: <=2.5; AUC (B cell): < 0.5; fold change (FC) [33]: 2.01; fold change (FC) [34]: 1.01; fold change (FC) [35]: 1.01; fold change (FC) [36]: 1.01; fold change (FC) [37]: <=1
Cn1cnnc1[C@@H]1C[C@@H]1c1cccc(N2Cc3c(ccnc3C(F)(F)F)C2=O)c1 | 1.01 | 1.01 | 0.101 | 0.051 | 1.01 | 1.01 | 1.01 | 0.801 | 0.601 | 1.401 | <=1.2 | <=1.2 | 2.01 | <=2 | <=1.2 | <=1.2 | <=1.2 | <=2 | <=1.5 | <=1.5 | fold change (FC) [21]: <=1.5; fold change (FC) [22]: 2.01; fold change (FC) [23]: 1.51; fold change (FC) [24]: <=2; fold change (FC) [25]: <=2; fold change (FC) [26]: <=2; fold change (FC) [27]: <=2.5; fold change (FC) [28]: <=1.4; fold change (FC) [29]: <=1.4; fold change (FC) [30]: <=1.4; fold change (FC) [31]: 2.51; fold change (FC) [32]: <=2.5; AUC (B cell): 1.01; fold change (FC) [33]: 2.01; fold change (FC) [34]: 1.01; fold change (FC) [35]: <=1; fold change (FC) [36]: 1.01; fold change (FC) [37]: <=1
Cc1cc(C(=O)Nc2cccc([C@H](C)Cc3nncn3C)c2)nc(C2CC2)n1 | >=7.5 | 5 | >=0.201 | >=0.201 | >=1.76 | >=1.76 | 1.51 | >=1.001 | >=1.001 | >1.601 | <=1.2 | <=1.2 | >4 | <=2 | >1.601 | <=1.2 | 1.401 | <=2 | >4 | 2.01 | fold change (FC) [21]: 2.01; fold change (FC) [22]: >4; fold change (FC) [23]: 1.51; fold change (FC) [24]: 2.01; fold change (FC) [25]: >4; fold change (FC) [26]: 2.01; fold change (FC) [27]: <=2.5; fold change (FC) [28]: >1.61; fold change (FC) [29]: >1.61; fold change (FC) [30]: >1.61; fold change (FC) [31]: <=2.5; fold change (FC) [32]: <=2.5; AUC (B cell): > 1.51; fold change (FC) [33]: 2.01; fold change (FC) [34]: 2.01; fold change (FC) [35]: 2.01; fold change (FC) [36]: 2.01; fold change (FC) [37]: 1.01
C[C@H](Sc1nncn1C)c1cccc(NC(=O)c2cccc(C(F)(F)F)n2)c1 | 2.51 | 1.01 | >=0.201 | 0.051 | >=1.76 | 1.31 | 1.31 | >=1.001 | 0.601 | <=1.2 | <=1.2 | <=1.2 | <=2 | <=2 | <=1.2 | <=1.2 | <=1.2 | <=2 | 1.51 | 2.01 | fold change (FC) [21]: 1.51; fold change (FC) [22]: 2.01; fold change (FC) [23]: 1.51; fold change (FC) [24]: <=2; fold change (FC) [25]: <=2; fold change (FC) [26]: <=2; fold change (FC) [27]: <=2.5; fold change (FC) [28]: 1.41; fold change (FC) [29]: <=1.4; fold change (FC) [30]: <=1.4; fold change (FC) [31]: 2.51; fold change (FC) [32]: <=2.5; AUC (B cell): 0.5; fold change (FC) [33]: 2.01; fold change (FC) [34]: 1.01; fold change (FC) [35]: 1.01; fold change (FC) [36]: <=1; fold change (FC) [37]: 1.01
